Experimental findings from ChEMBL document CHEMBL1201862, “PubChem BioAssay data set” (2004) are described below.

Test systems include MDA-MB-231; M14; HOP-92; OVCAR-3; T47D; SNB-19; UACC-257; UO-31; NCI/ADR-RES; U-251; A498; MDA-N; CAKI-1; NCI-H23; RPMI-8226; PC-3; A549; HT-29; TK-10; HCC 2998.
Common to all, as to assay: NCI-60 cell line screen, 48 h

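Following 48 hours of exposure in 96-well plates, responses at five concentrations were used to interpolate endpoints linearly. GI50: concentration for 50% inhibition of growth.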 Active and inactive are the calls of the source. Cut-off read from the data, not from the text of the source: active = GI50 up to about 1.1 µM and inactive = higher. Where a SMILES comes first, the peptide text is derived from it. The star is where a group is joined. Boc = CC(C)(C)OC(=O)* Bounds are passed on as bounds.

For the compound `CCOC(=O)CC(=O)Nc1cccc2nc[nH]c12`, the GI50 in the test with MDA-MB-231, in the test on M14, in the test on HOP-92, with OVCAR-3, with T47D and in the test with SNB-19 was > 100 µM (inactive) in each case. Besides, the GI50 in the test on UACC-257, in the test on UO-31, in the test on NCI/ADR-RES, in the test on U-251, in the test on A498 and with MDA-N was > 100 µM (inactive) in each case. Also, the GI50 with CAKI-1, in the test with NCI-H23, in the test with RPMI-8226, with PC-3, with A549 and in the test with HT-29 was > 100 µM (inactive) each time.
Consider `COC(=O)C(Cc1c(C2Nc3ccccc3C2CC(NC(C)=O)C(=O)OC)[nH]c2ccccc12)NC(C)=O` (configuration not stated), for which the GI50 in the test on MDA-MB-231, with M14, in the test on HOP-92, in the test on OVCAR-3, in the test on T47D and in the test on SNB-19 was > 100 µM (inactive) throughout. Further, the GI50 in the test on UACC-257, in the test with UO-31, with NCI/ADR-RES, in the test with U-251, with A498 and with MDA-N was > 100 µM (inactive) in each case. In addition, the GI50 in the test on TK-10, in the test with CAKI-1, in the test on NCI-H23, in the test on RPMI-8226, in the test with PC-3 and in the test on A549 was > 100 µM (inactive) each time. In addition, the GI50 in the test with HT-29 was > 100 µM (inactive).
In the case of `CCc1ccccc1/N=N/C(=O)NNc1ccccc1CC`, the GI50 was 21.3 µM (inactive) with MDA-MB-231; 16.9 µM (inactive) in the test with M14; 18.7 µM (inactive) in the test with OVCAR-3; 6.78 µM (inactive) in the test on T47D; 25.8 µM (inactive) in the test on SNB-19; 18.9 µM (inactive) in the test on UACC-257. Besides, the GI50 is 17.3 µM (inactive) in the test with UO-31; 16.1 µM (inactive) in the test on U-251; 18.7 µM (inactive) in the test with A498; 18.3 µM (inactive) with MDA-N; 22.1 µM (inactive) in the test on TK-10; 15.7 µM (inactive) in the test on HCC 2998. Besides, the GI50 with CAKI-1 was 27.9 µM (inactive); in the test with NCI-H23 it was 19.9 µM (inactive); in the test on RPMI-8226, 22.2 µM (inactive); in the test on PC-3, 16.4 µM (inactive); with A549, 14.9 µM (inactive); in the test with HT-29, 24 µM (inactive).
Take `COc1cc(C(=O)Nc2c3ccccc3nc3ccccc23)cc(OC)c1OC`: the GI50 in the test on MDA-MB-231 was > 91.8 µM (inactive); with M14, > 53.6 µM (inactive); with HOP-92, 50.1 µM (inactive); in the test with OVCAR-3, 98.6 µM (inactive); in the test on T47D it was > 100 µM (inactive); in the test with SNB-19, > 95.1 µM (inactive). In addition, the GI50 with UACC-257 is > 100 µM (inactive); with UO-31 it was 40.3 µM (inactive); with NCI/ADR-RES, > 93.5 µM (inactive); with U-251 it was > 100 µM (inactive); with MDA-N it was 30 µM (inactive); in the test on TK-10, > 100 µM (inactive). For the same compound, the GI50 in the test with HCC 2998 was > 100 µM (inactive); in the test with CAKI-1, > 22.1 µM (inactive); in the test on NCI-H23 it was > 100 µM (inactive); in the test on RPMI-8226, > 100 µM (inactive); in the test with PC-3, > 100 µM (inactive); in the test with A549, > 100 µM (inactive). Also, the GI50 in the test on HT-29 was > 100 µM (inactive).
In the case of `COC1CC(OC2C(C)OC(OC3C(C)OC(OC4C(C)OC(O[C@H]5CC[C@@]6(C)C(=CC[C@]7(O)[C@@H]6C[C@@H](OC(=O)/C=C(\C)C(C)C)[C@@]6(C)[C@]7(O)CC[C@@]6(O)C(C)=O)C5)CC4OC)CC3OC)CC2OC)OC(C)C1O` (some centres not stated), the GI50 with MDA-MB-231 is 11.9 µM (inactive); in the test with M14, > 12.5 µM (inactive); with HOP-92, > 12.5 µM (inactive); in the test on OVCAR-3, > 12.5 µM (inactive); in the test on T47D, > 12.5 µM (inactive); in the test on SNB-19 it was > 12.5 µM (inactive). For the same compound, the GI50 in the test on UACC-257 was > 12.5 µM (inactive); in the test with UO-31, 4.85 µM (inactive); in the test on NCI/ADR-RES, > 12.5 µM (inactive); in the test with U-251, > 12.5 µM (inactive); with MDA-N, > 12.5 µM (inactive); in the test on TK-10, > 12.5 µM (inactive). Besides, the GI50 with HCC 2998 was > 12.5 µM (inactive); in the test with CAKI-1, > 12.5 µM (inactive); in the test on NCI-H23 it was > 12.5 µM (inactive); in the test on RPMI-8226 it was 4.02 µM (inactive); with PC-3, > 12.5 µM (inactive); in the test with A549, > 12.5 µM (inactive). For the same compound, the GI50 in the test on HT-29 is > 12.5 µM (inactive).
As to `CN(NC(=O)/C(=C/C=C/c1ccccc1)NC(=O)c1ccccc1)C1=C(Cl)C(=O)[N+](c2ccccc2)=CC1`, the GI50 was 18.4 µM (inactive) in the test on MDA-MB-231; 18.1 µM (inactive) in the test with M14; 20.5 µM (inactive) in the test with HOP-92; 20.8 µM (inactive) in the test with OVCAR-3; 15.7 µM (inactive) in the test on T47D; 25.4 µM (inactive) in the test on SNB-19. The GI50 in the test on UACC-257 is 41.2 µM (inactive); with UO-31, 26.5 µM (inactive); in the test on NCI/ADR-RES it was 20.7 µM (inactive); with U-251, 19.8 µM (inactive); in the test with A498, 39.4 µM (inactive); in the test on MDA-N, 18.2 µM (inactive). In addition, the GI50 in the test with TK-10 is 55.2 µM (inactive); in the test with CAKI-1, 35.4 µM (inactive); with NCI-H23, 35.4 µM (inactive); in the test with RPMI-8226, 23.9 µM (inactive); in the test with PC-3, 35.7 µM (inactive); with A549, 26.3 µM (inactive). Further, in the test with HT-29, the GI50 is 29.2 µM (inactive).
Consider `CC1=C(/C=C/C(C)=C/C=C/C(C)=C/C(=O)OCC2OC(n3cc(F)c(=O)[nH]c3=O)CC2OC(=O)/C=C(C)/C=C/C=C(C)/C=C/C2=C(C)CCCC2(C)C)C(C)(C)CCC1` (configuration not stated), for which the GI50 in the test with MDA-MB-231 is 30.1 µM (inactive); in the test with M14, 3.81 µM (inactive); in the test with HOP-92, 1.25 µM (inactive); in the test on OVCAR-3, 9.75 µM (inactive); in the test on T47D, 15.7 µM (inactive); with SNB-19, 3.1 µM (inactive). The GI50 is 9.23 µM (inactive) with UACC-257; 0.94 µM (active) in the test on UO-31; 5.21 µM (inactive) with NCI/ADR-RES; 4.15 µM (inactive) in the test with U-251; 10.4 µM (inactive) with MDA-N; 21.6 µM (inactive) in the test with TK-10. Moreover, the GI50 in the test with HCC 2998 is 0.132 µM (active); in the test with CAKI-1, 0.959 µM (active); in the test with NCI-H23, 10.4 µM (inactive); in the test with RPMI-8226, 0.796 µM (active); with PC-3, 8.95 µM (inactive); in the test on A549 it was 0.402 µM (active). In the test with HT-29, the GI50 was 11.2 µM (inactive).
For the compound `O=CNC(Cc1c[nH]cn1)C(=O)O` (configuration not stated), the GI50 with MDA-MB-231, in the test with M14, with HOP-92, in the test with OVCAR-3, in the test with T47D and with SNB-19 was > 100 µM (inactive) throughout. Further, the GI50 in the test on UACC-257, with UO-31, with NCI/ADR-RES, in the test on U-251, in the test on A498 and with MDA-N was > 100 µM (inactive) in each case. Further, the GI50 with TK-10, in the test with CAKI-1, in the test on NCI-H23, in the test with RPMI-8226, with PC-3 and with A549 was > 100 µM (inactive) throughout. Also, the GI50 with HT-29 is > 100 µM (inactive).
Turning to `Cn1c(=O)c2[nH]c(C3CC(=O)CC(c4nc5c([nH]4)c(=O)n(C)c(=O)n5C)N3)nc2n(C)c1=O` (configuration not stated), the GI50 in the test with MDA-MB-231, in the test on M14, with OVCAR-3, in the test with T47D, in the test on SNB-19 and with UACC-257 was > 100 µM (inactive) throughout. The GI50 with UO-31 was > 100 µM (inactive); with NCI/ADR-RES it was > 100 µM (inactive); in the test with U-251, 91 µM (inactive); in the test on A498, > 100 µM (inactive); in the test with MDA-N, > 100 µM (inactive); in the test with TK-10 it was > 100 µM (inactive). Also, the GI50 in the test on CAKI-1, with NCI-H23, with RPMI-8226, with PC-3, with A549 and in the test with HT-29 was > 100 µM (inactive) each time.
`COC(=O)C(C)NC(=O)C(CCSC)NC(=O)C(Cc1ccccc1)NC(=O)OC(C)(C)C` (stereo not drawn) (Boc-Phe-Met-Ala-OMe; configuration not given here): the GI50 in the test on MDA-MB-231, in the test on M14, in the test on HOP-92, in the test with OVCAR-3, with T47D and in the test on SNB-19 was > 100 µM (inactive) in each case. Besides, the GI50 in the test on UACC-257, in the test on UO-31, in the test on NCI/ADR-RES, in the test on U-251, in the test on MDA-N and in the test on TK-10 was > 100 µM (inactive) each time. For the same compound, the GI50 in the test on HCC 2998, in the test with CAKI-1, in the test on NCI-H23, in the test with RPMI-8226, in the test with PC-3 and in the test on A549 was > 100 µM (inactive) throughout. In addition, the GI50 in the test with HT-29 was > 100 µM (inactive).
